# Measured values published in patent US20050004029A1, “Methods and compositions for treating vascular leak using hepatocyte growth factor” (priority 2001, published 2005).
# Tested on: GSK3β
# Assay: GSK3β Ser9 phosphorylation by western immunoblot
# Assay type: cell-based, human
# Details: after HGF treatment
# Method: Endothelial cell monolayers grown to confluence in 12-well plates and challenged with HGF were lysed with 100 μl of 2×SDS sample buffer, and cell lysates were transferred into microcentrifuge tubes and boiled for 5 min. After a brief spin, proteins from 10 μl cell lysates were separated on 12% SDS-PAGE and transferred to nitrocellulose (Schleicher & Schuell, Keene, N.H.) (30V, 18 h). After blocking with PBST (PBS with 0.1% Tween 20) containing 5% non-fat milk for 1 hr, nitrocellulose blots were reacted with primary antibodies diluted in PBST containing 5% BSA for 1 hr, washed with PBST (3×10 min), incubated with peroxidase-conjugated secondary antibodies (goat anti-rabbit IgG, 1:10,000 dilution, Sigma; or goat anti-mouse IgG, 1:10,000 dilution, Bio-Rad Labs, Richmond, Calif.) diluted in PBST with 5% non-fat milk for 1 hr and again washed with PBST (3×10 min). Finally, immunoreactive proteins were detected using ECL. The relative intensities of the protein bands were quantified by scanning densitometry.
# HGF has been reported to increase the phosphorylation status of GSK3β, a multi-functional enzyme involved in glycogen synthesis and protein synthesis regulation activity in mammary epithelial cells (Papkoff, J. and Aikawa, M. (1998) Biochem. Biophys. Res. Commun. 247:851-858). Of potential importance to barrier regulation, GSK3β phosphorylation results in enzymatic inactivation and increases the level of uncomplexed cellular β-catenin (Papkoff, J. (1997) J. Biol. Chem. 272(7):4536-4543). […] Concomitant with HGF-induced TER augmentation, increases in phosphorylation of GSK3β after HGF treatment was detected by increased immunofluorescence and prominent by Western blotting at 2 min, with peak intensity leveling off at 15-30 min, although remaining above basal levels for more than 2 hr. […]
substance,measurement,setting,value
"HGF: heparin-binding glycoprotein, multifunctional cytokine, ligand of c-Met; purchased from R&D Systems",duration of GSK3β phosphorylation above basal levels,,more than 2 hr
same,time of peak GSK3β phosphorylation,,15 to 30 min
same,time at which GSK3β phosphorylation is prominent,Western blotting,2 min
